Patent US10639284B2, “Immunomodulator compounds” (CHEMOCENTRYX, INC., priority 2016, dated 2020)

Biological target: human PD-L1 / Human PD-1 (Homo sapiens (Human), UniProt Q9NZQ7)
Assay: Enzyme-Linked Immunosorbent Assay (ELISA), PD-1/PD-L1 binding
Conditions: Table 2; plate-coated human PD-L1, biotinylated human PD-1; read-out: ELISA IC50
In short: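 Human PD-L1 coated at 1 μg/mL overnight at 4° C; samples diluted 1:5 and incubated with human PD-1 and biotin (0.3 μg/mL) for 1 h at 37° C. Bound PD-1 detected with streptavidin-HRP and TMB (20 min, 37° C), acid-stopped, absorbance at 450 nm.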

human PD-L1 / Human PD-1, sequence (Q9NZQ7 19-239): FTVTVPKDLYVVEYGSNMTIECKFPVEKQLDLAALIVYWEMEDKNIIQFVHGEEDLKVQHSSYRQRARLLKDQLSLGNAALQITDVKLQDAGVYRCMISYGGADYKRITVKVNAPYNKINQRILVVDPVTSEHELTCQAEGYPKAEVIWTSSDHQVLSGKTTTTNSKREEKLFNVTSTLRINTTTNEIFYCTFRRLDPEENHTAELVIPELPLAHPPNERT

IC50 [nM]	SMILES
100 to 500	N#Cc1cncc(COc2cc(O[C@H]3CCc4c(-c5ccccc5F)cccc43)c(Cl)cc2CN2CC3(CC(O)C3)C2)c1 [Example 2.119]
500 to 20000	N#Cc1cncc(COc2cc(O[C@H]3CCc4c(-c5ccccc5F)cccc43)c(Cl)cc2CN2CC(F)C2)c1 [Example 2.120]
100 to 500	N#Cc1cccc(-c2cc(O[C@H]3CCc4c(-c5ccccc5F)cccc43)c(Cl)cc2CN[C@@H](CO)C(=O)O)c1 [Example 2.121]
< 100	C[C@H](O)[C@@H](NCc1cc(Cl)c(O[C@H]2CCc3c(-c4ccccc4F)cccc32)cc1OCc1cncc(C#N)c1)C(=O)O [Example 2.122]
100 to 500	CC(C)[C@H](NCc1cc(Cl)c(O[C@H]2CCc3c(-c4ccccc4F)cccc32)cc1OCc1cncc(C#N)c1)C(=O)O [Example 2.123]
500 to 20000	NC(=O)COc1cc(O[C@H]2CCc3c(-c4ccccc4F)cccc32)c(Cl)cc1CN[C@@H](CO)C(=O)O [Example 2.124]
< 100	CCC(O)C(NCc1cc(Cl)c(O[C@H]2CCc3c(-c4ccccc4F)cccc32)cc1OCc1cncc(C#N)c1)C(=O)O (stereo partly drawn) [Example 2.125]
100 to 500	C[C@@H](O)[C@H](NCc1cc(Cl)c(O[C@H]2CCc3c(-c4ccccc4F)cccc32)cc1-c1cncc(C#N)c1)C(=O)O [Example 2.126]
< 100	C[C@H](O)[C@H](NCc1cc(Cl)c(O[C@H]2CCc3c(-c4ccccc4F)cccc32)cc1OCc1cncc(C#N)c1)C(=O)O [Example 2.127]
< 100	C[C@@H](O)[C@@H](NCc1cc(Cl)c(O[C@H]2CCc3c(-c4ccccc4F)cccc32)cc1OCc1cncc(C#N)c1)C(=O)O [Example 2.129]
100 to 500	Nc1ncc(COc2cc(O[C@H]3CCc4c(-c5ccccc5F)cccc43)c(Cl)cc2CN2CCC(O)CC2)cn1 [Example 2.130]
100 to 500	COc1ncc(COc2cc(O[C@H]3CCc4c(-c5ccccc5F)cccc43)c(Cl)cc2CN2CCC(O)CC2)cn1 [Example 2.131]
100 to 500	N#Cc1cncc(COc2cc(O[C@H]3CCc4c(-c5ccccc5F)cccc43)c(Cl)cc2CN[C@H](C(=O)O)[C@H](O)c2ccccc2)c1 [Example 2.132]
100 to 500	C[C@@H](O)[C@H](NCc1cc(Cl)c(O[C@H]2CCc3c(-c4ccccc4F)cccc32)cc1OCc1cccnn1)C(=O)O [Example 2.133]
< 100	COC[C@H](NCc1cc(Cl)c(O[C@H]2CCc3c(-c4ccccc4F)cccc32)cc1OCc1cncc(C#N)c1)C(=O)O [Example 2.134]
100 to 500	C[C@@H](O)[C@H](NC(=O)CNCc1cc(Cl)c(O[C@H]2CCc3c(-c4ccccc4F)cccc32)cc1OCc1cncc(C#N)c1)C(=O)O [Example 2.135]
100 to 500	N#Cc1cncc(COc2cc(O[C@@H]3CCc4c(-c5ccccc5F)cccc43)c(Cl)cc2CN2CCC(O)CC2)c1 [Example 2.136]
100 to 500	C=CC(=O)NCCNCc1cc(Cl)c(O[C@H]2CCc3c(-c4ccccc4F)cccc32)cc1OCc1cncc(C#N)c1 [Example 2.137]
< 100	C[C@@H](O)[C@H](NCc1cc(Cl)c(O[C@@H]2CCc3c(-c4ccccc4F)cccc32)cc1OCc1cncc(C#N)c1)C(=O)O [Example 2.138]
< 100	N#Cc1cncc(COc2cc(O[C@@H]3CCc4c(-c5ccccc5F)cccc43)c(Cl)cc2CN[C@@H](CO)C(=O)O)c1 [Example 2.139]
< 100	COC(=O)[C@H](CO)NCc1cc(Cl)c(O[C@H]2CCc3c(-c4ccccc4F)cccc32)cc1OCc1cncc(C#N)c1 [Example 2.140]
< 100	C[C@@H](NCc1cc(Cl)c(O[C@H]2CCc3c(-c4ccccc4F)cccc32)cc1OCc1cncc(C#N)c1)C(=O)O [Example 2.141]
100 to 500	COc1cccc(-c2cccc3c2CC[C@@H]3Oc2cc(OCc3cncc(C#N)c3)c(CNCC(C)(C)O)cc2Cl)c1F [Example 2.142]

IC50 [nM]	SMILES
100 to 500	CC(C)(O)CNCc1cc(Cl)c(O[C@H]2CCc3c(-c4ccccc4F)cccc32)cc1OCc1cncc(C#N)c1 [Example 2.143]
< 100	N#Cc1cncc(COc2cc(O[C@H]3CCc4c(-c5ccccc5F)cccc43)c(Cl)cc2CNC2(C(=O)O)CC2)c1 [Example 2.144]
< 100	N#Cc1cncc(COc2cc(O[C@H]3CCc4c(-c5ccccc5F)cccc43)c(Cl)cc2CNC2(C(=O)O)CCC2)c1 [Example 2.145]
< 100	C[C@@H](O)[C@H](NCc1cc(Cl)c(O[C@@H]2c3cccc(-c4ccccc4F)c3C[C@H]2F)cc1OCc1cncc(C#N)c1)C(=O)O [Example 2.146]
< 100	N#Cc1cncc(COc2cc(O[C@@H]3c4cccc(-c5ccccc5F)c4C[C@H]3F)c(Cl)cc2CN[C@@H](CO)C(=O)O)c1 [Example 2.147]
500 to 20000	N#Cc1cncc(COc2cc(O[C@@H]3c4cccc(-c5ccccc5F)c4C[C@H]3F)c(Cl)cc2CN2CCC(O)CC2)c1 [Example 2.148]
100 to 500	C[C@@H](O)[C@H](NCc1cc(Cl)c(O[C@H]2CCc3c(-c4ccccc4F)cccc32)cc1OCc1cncc(C#N)c1)C(N)=O [Example 2.149]
100 to 500	N#Cc1cncc(COc2cc(O[C@H]3CCc4c(-c5ccccc5F)cccc43)c(Cl)cc2CNCc2nc(=O)o[nH]2)c1 [Example 2.150]
500 to 20000	N#Cc1cncc(COc2cc(O[C@H]3CCc4c(-c5ccccc5F)cccc43)c(Cl)cc2CNCC(=O)NO)c1 [Example 2.151]
< 100	CC(CO)(NCc1cc(Cl)c(O[C@H]2CCc3c(-c4ccccc4F)cccc32)cc1OCc1cncc(C#N)c1)C(=O)O (stereo partly drawn) [Example 2.152]
100 to 500	CCOc1cc(O[C@H]2CCc3c(-c4ccccc4F)cccc32)c(Cl)cc1CN[C@@H](C)C(=O)O [Example 2.153]
100 to 500	CCOc1cc(O[C@H]2CCc3c(-c4ccccc4F)cccc32)c(Cl)cc1CN[C@@H](C)C(=O)O [Example 2.154]
100 to 500	CCOc1cc(O[C@H]2CCc3c(-c4ccccc4F)cccc32)c(Cl)cc1CN[C@H](CO)C(=O)O [Example 2.155]
100 to 500	CCOc1cc(O[C@H]2CCc3c(-c4ccccc4F)cccc32)c(Cl)cc1CN[C@H](CO)C(=O)O [Example 2.156]
100 to 500	CCOc1cc(O[C@H]2CCc3c(-c4ccccc4F)cccc32)c(Cl)cc1CN[C@H](C(=O)O)[C@@H](C)O [Example 2.157]
100 to 500	CCOc1cc(O[C@H]2CCc3c(-c4ccccc4F)cccc32)c(Cl)cc1CN[C@H](C(=O)O)[C@@H](C)O [Example 2.158]
< 100	C[C@@](CO)(NCc1cc(Cl)c(O[C@H]2CCc3c(-c4ccccc4F)cccc32)cc1-c1cncc(C#N)c1)C(=O)O [Example 2.159]
< 100	C[C@@H](O)[C@H](NCc1cc(Cl)c(O[C@H]2CCc3c(-c4ccc5c(c4Cl)OCCO5)cccc32)cc1OCc1cncc(C#N)c1)C(=O)O [Example 2.160]
< 100	N#Cc1cncc(COc2cc(O[C@H]3CCc4c(-c5ccc6c(c5Cl)OCCO6)cccc43)c(Cl)cc2CN[C@@H](CO)C(=O)O)c1 [Example 2.161]
500 to 20000	CCOC(=O)[C@H](CO)NCc1cc(Cl)c(O[C@H]2CCc3c(-c4ccccc4F)cccc32)cc1OCc1cncc(C#N)c1 [Example 2.162]
100 to 500	C[C@H](NCc1cc(Cl)c(O[C@H]2CCc3c(-c4ccc5c(c4Cl)OCCO5)cccc32)cc1OCc1cncc(C#N)c1)C(=O)O [Example 2.163]
< 100	CCOc1cc(O[C@H]2CCc3c(-c4ccccc4F)cccc32)c(Cl)cc1CNC(CO)(CO)CO [Example 2.164]
